Laboratory results as given in ChEMBL document CHEMBL1140629, “2D QSAR studies on thyroid hormone receptor ligands” (Bioorg Med Chem, 2007).
pIC50: −log10 of the molar value.

Columns and labels:
[1] = biological target: T1, Thyroid hormone receptor alpha (Homo sapiens, UniProt P10827)
T1 sequence (P10827 whole entry): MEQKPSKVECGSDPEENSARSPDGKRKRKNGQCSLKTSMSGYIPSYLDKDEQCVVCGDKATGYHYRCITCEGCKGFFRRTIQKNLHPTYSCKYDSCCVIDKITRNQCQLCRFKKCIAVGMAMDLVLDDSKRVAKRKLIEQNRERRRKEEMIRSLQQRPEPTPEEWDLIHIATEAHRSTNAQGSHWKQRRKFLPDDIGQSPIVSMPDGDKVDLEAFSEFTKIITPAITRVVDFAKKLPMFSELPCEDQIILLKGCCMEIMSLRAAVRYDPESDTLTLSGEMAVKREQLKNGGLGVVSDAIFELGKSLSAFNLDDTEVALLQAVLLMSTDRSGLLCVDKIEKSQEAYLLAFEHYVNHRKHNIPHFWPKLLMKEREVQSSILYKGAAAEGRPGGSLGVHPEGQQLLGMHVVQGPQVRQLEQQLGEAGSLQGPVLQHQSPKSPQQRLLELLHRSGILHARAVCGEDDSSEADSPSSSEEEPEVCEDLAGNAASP

[2] = biological target: T2, Thyroid hormone receptor beta (Homo sapiens, UniProt P10828)
T2 sequence (P10828 whole entry): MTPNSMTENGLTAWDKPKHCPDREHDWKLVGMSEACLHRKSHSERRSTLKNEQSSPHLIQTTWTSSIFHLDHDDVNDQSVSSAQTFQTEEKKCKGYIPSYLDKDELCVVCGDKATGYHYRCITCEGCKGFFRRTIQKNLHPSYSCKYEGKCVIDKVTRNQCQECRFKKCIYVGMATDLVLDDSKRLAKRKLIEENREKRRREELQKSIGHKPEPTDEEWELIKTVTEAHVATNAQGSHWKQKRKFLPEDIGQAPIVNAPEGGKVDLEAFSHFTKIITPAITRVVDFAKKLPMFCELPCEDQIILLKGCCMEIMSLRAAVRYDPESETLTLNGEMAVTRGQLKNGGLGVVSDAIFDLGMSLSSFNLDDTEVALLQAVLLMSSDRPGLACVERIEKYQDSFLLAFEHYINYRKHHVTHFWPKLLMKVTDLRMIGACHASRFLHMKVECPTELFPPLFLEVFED

SMILES	pIC50 [1]	pIC50 [2]
O=C(O)Cc1cc(Br)c(Oc2ccc(O)c(C(=O)Nc3ccccc3)c2)c(Br)c1	–	7.45
O=C(O)Cc1cc(Cl)c(Oc2ccc(O)c(-c3ccccc3)c2)c(Cl)c1	6.89	–
O=C(O)Cc1cc(Br)c(Oc2ccc(O)c(C(=O)NCc3ccccc3)c2)c(Br)c1	7.07	–
CC(C)c1cc(Oc2c(Cl)cc3[nH]c(C(=O)O)cc(=O)c3c2Cl)ccc1O	–	7.82
O=C(O)Cc1cc(Br)c(OC2CCCCC2)c(Br)c1	5.57	6.11
CC(C)c1cc(Oc2c(Br)cc3c(c2Br)CC(C(=O)O)N3)ccc1O (stereo unspecified)	7.42	8.07

Results, then the compound that gave them:

pIC50 [1]	pIC50 [2]	SMILES
4.58	–	CCCCOc1c(Br)cc(CC(=O)O)cc1Br
6.62	–	O=C(O)Cc1cc(Br)c(Oc2ccc(O)c(Oc3ccc(O)cc3)c2)c(Br)c1
5.93	–	O=C(O)Cc1cc(Cl)c(Oc2ccc(O)c(-c3cccc(O)c3)c2)c(Cl)c1
–	8.31	COc1cccc(CCNC(=O)c2cc(Oc3c(Br)cc(CC(=O)O)cc3Br)ccc2O)c1
5.94	–	O=C(O)Cc1cc(Br)c(Oc2ccc(O)c(C(=O)NCCc3ccccn3)c2)c(Br)c1
6.47	8.02	O=C(O)Cc1cc(Br)c(Oc2ccc(O)c(Cc3ccc(C(F)(F)F)cc3)c2)c(Br)c1
6.34	6.72	O=C(O)CCc1cc(Br)c(OC2CCCCC2)c(Br)c1
6.90	8.46	O=C(O)Cc1cc(Cl)c(Oc2ccc(O)c(C(=O)NCc3ccccc3)c2)c(Cl)c1
–	9.07	O=C(O)Cc1cc(Cl)c(Oc2ccc(O)c(-c3cccc(C(F)(F)F)c3)c2)c(Cl)c1
–	8.49	O=C(O)Cc1cc(Cl)c(Oc2ccc(O)c(-c3ccccc3C(F)(F)F)c2)c(Cl)c1
